Laboratory results published in US20070275368A1, “Posh Associated Kinases And Related Methods” (PROTEOLOGICS, LTD., priority 2003, published 2007).

Legend:
[1] = test system: HIV-1; details: H89 50 μM, HeLa SS6 cells transfected with pNLenv-1, 20 minutes after shift to 37° C.
Procedure: HeLa SS6 cells were transfected with pNLenv-1PTAP or pNLenv-1ATAA (L-domain mutant). Eighteen hours post-transfection, cells were transferred to 20° C. for two hours in order to inhibit transport of viral particles from the trans-Golgi (TGN) to the plasma membrane (PM). Subsequently, the PKA inhibitor, H89 (50 μM) (Biosource, Cat. No. PHZ1114) or DMSO were added to the cells and dishes were transferred to 37° C. to initiate transport from the TGN to the PM. Reverse transcriptase activity was assayed from virus-like-particles collected from cell supernatant twenty minutes later.
For transfections, HeLa SS6 cells were grown to 100% confluency in DMEM containing 10% FCS without antibiotics. Cells were then transfected with HIV-1NLenv1 (2 μg per 6-well) (Schubert et al., 1995).
Virus and virus-like particle (VLP) release by reverse transcriptase activity was determined one day after transfection with the pro-viral DNA as previously described (Adachi et al., 1986; Fukumori et al., 2000; Lenardo et al., 2002). The culture medium of virus-expressing cells was collected and centrifuged at 500×g for 10 minutes. The resulting supernatant was passed through a 0.45 μm-pore filter and the filtrate was centrifuged at 14,000×g for 2 hours at 4° C. […]

[2] = test system: HIV-1; details: Cartier et al., 2003; cited from earlier work
[3] = test system: T1, Bacterially expressed recombinant maltose-binding-protein (MBP)-hPOSH
T1 sequence: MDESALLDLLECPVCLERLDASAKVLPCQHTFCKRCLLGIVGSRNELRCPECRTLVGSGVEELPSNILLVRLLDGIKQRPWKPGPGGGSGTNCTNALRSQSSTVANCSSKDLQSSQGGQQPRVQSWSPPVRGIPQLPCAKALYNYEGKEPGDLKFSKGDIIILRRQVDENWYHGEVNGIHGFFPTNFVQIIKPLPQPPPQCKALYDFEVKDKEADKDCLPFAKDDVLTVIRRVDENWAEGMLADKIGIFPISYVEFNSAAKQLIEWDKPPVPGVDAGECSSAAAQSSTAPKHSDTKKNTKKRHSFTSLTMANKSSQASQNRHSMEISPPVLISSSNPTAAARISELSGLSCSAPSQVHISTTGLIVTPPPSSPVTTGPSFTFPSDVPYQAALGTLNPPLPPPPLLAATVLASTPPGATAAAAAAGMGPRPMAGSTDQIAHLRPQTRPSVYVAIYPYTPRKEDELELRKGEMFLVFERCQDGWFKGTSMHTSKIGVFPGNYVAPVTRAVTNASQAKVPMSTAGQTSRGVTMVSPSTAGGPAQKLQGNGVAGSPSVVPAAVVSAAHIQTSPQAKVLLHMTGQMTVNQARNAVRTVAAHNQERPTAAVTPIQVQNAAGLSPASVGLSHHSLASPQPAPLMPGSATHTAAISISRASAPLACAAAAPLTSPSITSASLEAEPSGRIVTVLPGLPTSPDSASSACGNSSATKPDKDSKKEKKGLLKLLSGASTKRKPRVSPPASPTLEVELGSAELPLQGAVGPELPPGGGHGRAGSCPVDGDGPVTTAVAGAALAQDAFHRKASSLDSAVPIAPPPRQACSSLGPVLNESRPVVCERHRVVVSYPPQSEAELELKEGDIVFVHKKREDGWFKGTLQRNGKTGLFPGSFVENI

Row | Molecule | inhibition of RT activity of virus-like-particles collected from cell supernatant [1] | block of HIV-1 release from cells [2] | phosphorylation of hPOSH (immunoblot with PKA-substrate phospho-specific antibody) [3]
1 | O=S(=O)(NCCNCC=Cc1ccc(Br)cc1)c1cccc2cnccc12 [H89, N-[2-((Pbromocinnamyl)amino)ethyl]isoquinolinesulfonamide] | complete inhibition | able to block HIV-1 release from cells | 
2 | PKA catalytic subunit (PKAc) |  |  | POSH is phosphorylated by PKA
